Read-outs that look alike come from different tables or passages of the source.
How the values were obtained:
5-HT2BR [1] = biological target: T1, 5-HT2BR (Homo sapiens, UniProt P41595); assay: Radioligand binding (competitive displacement and saturation), cell membranes; conditions: pKi at the 5-HT2BR, single experiment excluded from the reported data, excluded: excessive or incomplete radioligand displacement
human wild-type 5-HT2C = human wild-type 5-HT2C (Homo sapiens, UniProt P28335); assay: IP-One HTRF IP1 accumulation assay
α1B-adrenergic receptor [2] = biological target: T2, α1B-adrenergic receptor (Homo sapiens, UniProt P35368)
T2 sequence (P35368 1-520): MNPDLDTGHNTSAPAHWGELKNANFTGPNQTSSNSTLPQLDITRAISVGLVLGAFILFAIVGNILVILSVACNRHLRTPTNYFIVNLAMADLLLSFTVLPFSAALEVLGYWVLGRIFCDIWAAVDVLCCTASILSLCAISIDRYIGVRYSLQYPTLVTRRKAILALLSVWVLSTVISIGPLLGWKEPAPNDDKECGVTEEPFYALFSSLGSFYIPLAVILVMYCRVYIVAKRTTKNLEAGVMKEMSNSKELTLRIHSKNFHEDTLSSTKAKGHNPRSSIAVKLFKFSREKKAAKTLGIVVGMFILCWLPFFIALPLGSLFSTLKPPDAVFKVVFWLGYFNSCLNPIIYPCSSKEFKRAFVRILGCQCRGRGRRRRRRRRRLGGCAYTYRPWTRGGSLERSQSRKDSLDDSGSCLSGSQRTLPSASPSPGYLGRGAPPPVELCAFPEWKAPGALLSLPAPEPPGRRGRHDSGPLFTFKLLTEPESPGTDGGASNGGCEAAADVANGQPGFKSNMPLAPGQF

human wild-type 5-HT2B = human wild-type 5-HT2B (Homo sapiens, UniProt P41595); assay: IP-One HTRF IP1 accumulation assay
5-HT2BR [3] = biological target: T1, 5-HT2BR
male C57BL/6J mice [4] = assay: (±)-DOI-elicited head twitch response; conditions: for head twitch response elicited by (±)-DOI: 1 mg*kg^−1 (±)-DOI s.c., pretreatment s.c., every dose tested (PIMA, (2S,4R)-2k 0.3 or 3 mg kg^−1, (2R,4R)-3h 3.0 or 5.6 mg kg^−1)
5-HT7 = 5-HT7 (Homo sapiens, UniProt P34969); assay: Radioligand binding, cell membranes; conditions: for pKi 5-HT7: [^3H]5-CT, mean of n independent experiments
Procedure: (§1) Transfections were performed for 48 hours.

5-HT1A = biological target: T3, 5-HT1A (Homo sapiens, UniProt P08908); assay: Radioligand binding, cell membranes; conditions: for pKi 5-HT1A: [^3H]5-CT, mean of n independent experiments
T3 construct: host or cells: HEK293T, transient
T3 sequence (P08908 1-422): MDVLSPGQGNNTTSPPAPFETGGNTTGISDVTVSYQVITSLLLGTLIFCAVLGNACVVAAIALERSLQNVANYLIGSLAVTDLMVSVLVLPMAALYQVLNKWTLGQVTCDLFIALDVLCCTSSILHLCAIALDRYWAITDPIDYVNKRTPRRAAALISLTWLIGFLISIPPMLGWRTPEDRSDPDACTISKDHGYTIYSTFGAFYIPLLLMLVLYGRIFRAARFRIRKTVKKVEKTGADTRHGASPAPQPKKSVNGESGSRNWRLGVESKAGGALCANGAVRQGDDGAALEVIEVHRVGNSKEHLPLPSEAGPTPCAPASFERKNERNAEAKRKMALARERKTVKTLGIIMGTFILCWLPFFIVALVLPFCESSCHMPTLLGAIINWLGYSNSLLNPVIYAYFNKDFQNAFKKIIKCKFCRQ
Procedure: as §1

D2L = D2L (Homo sapiens, UniProt P14416); assay: Radioligand binding, cell membranes; conditions: for pKi D2L: [^3H]spiperone, mean of n independent experiments
Procedure: as §1

D3 = D3 (Homo sapiens, UniProt P35462); assay: Radioligand binding, cell membranes
Procedure: as §1

male C57BL/6J mice [5] = assay: Locomotor activity, compound alone (open field); assay type: in vivo; conditions: 3 mg*kg^−1 s.c. (FIG. 3C)
C322K^6.34 5-HT2AR = biological target: T4, C322K^6.34 5-HT2AR (Homo sapiens, UniProt P28223, C322K); assay: IP1 accumulation assay, inverse agonism at constitutively activated receptor; assay type: cell-based
T4 construct: expressed in transfected cells; host or cells: clonal cells
Procedure: as §1

α1A-adrenergic receptor [6] = biological target: T5, α1A-adrenergic receptor (Homo sapiens, UniProt P35348)
T5 sequence (P35348 1-466): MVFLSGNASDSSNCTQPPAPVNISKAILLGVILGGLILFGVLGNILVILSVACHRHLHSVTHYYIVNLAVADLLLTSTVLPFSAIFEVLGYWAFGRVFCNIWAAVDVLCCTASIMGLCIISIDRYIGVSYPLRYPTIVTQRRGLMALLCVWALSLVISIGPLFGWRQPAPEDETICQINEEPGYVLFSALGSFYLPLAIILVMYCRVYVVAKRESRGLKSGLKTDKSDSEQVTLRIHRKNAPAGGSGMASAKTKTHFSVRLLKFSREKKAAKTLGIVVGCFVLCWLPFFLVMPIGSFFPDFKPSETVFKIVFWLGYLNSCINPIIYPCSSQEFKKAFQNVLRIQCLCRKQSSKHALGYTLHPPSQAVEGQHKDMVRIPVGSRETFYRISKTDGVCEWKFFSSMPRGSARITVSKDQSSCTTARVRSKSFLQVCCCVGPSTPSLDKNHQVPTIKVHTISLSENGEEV

H1R = biological target: T6, H1R (Homo sapiens, UniProt P35367); assay: Radioligand binding (competitive displacement and saturation), cell membranes
T6 construct: host or cells: CHO, transient
Procedure: as §1

male C57BL/6J mice [7] = assay: Locomotor activity after (±)-DOI (open field); conditions: pretreatment 0.3 mg*kg^−1 s.c., compared to saline pretreatment (FIG. 3B)
human wild-type H1R = human wild-type H1R (Homo sapiens, UniProt P35367); assay: IP-One HTRF IP1 accumulation assay; conditions: competitive antagonism of histamine-stimulated IP1 accumulation (10 μM histamine)
α1B-adrenergic receptor [8] = biological target: T2, α1B-adrenergic receptor; assay: biochemical
α1A-adrenergic receptor [9] = biological target: T5, α1A-adrenergic receptor; assay: biochemical
W158I^4.56 H1R [10] = biological target: T7, W158I^4.56 H1R (Homo sapiens, UniProt P35367, W158I)
5-HT2AR = biological target: T8, 5-HT2AR (Homo sapiens, UniProt P28223); assay: Radioligand binding (competitive displacement and saturation), cell membranes; conditions: displacement of [^3H]ketanserin; mean of n independent experiments, ± SD where n ≥ 5
T8 construct: host or cells: HEK293, transient
Procedure: as §1

G238S^5.42 5-HT2AR = biological target: T9, G238S^5.42 5-HT2AR (Homo sapiens, UniProt P28223, G238S); assay: IP1 accumulation assay at point-mutated 5-HT2AR; assay type: cell-based; conditions: in the presence of 1 μM 5-HT; ± SD
T9 construct: expressed in transfected cells; host or cells: clonal cells
Procedure: as §1

I210V^4.60 5-HT2AR = biological target: T10, I210V^4.60 5-HT2AR (Homo sapiens, UniProt P28223, I210V); assay: IP1 accumulation assay at point-mutated 5-HT2AR; assay type: cell-based; conditions: in the presence of 1 μM 5-HT; ± SD
T10 construct: expressed in transfected cells; host or cells: clonal cells
Procedure: as §1

V235M^5.39 5-HT2AR = biological target: T11, V235M^5.39 5-HT2AR (Homo sapiens, UniProt P28223, V235M); assay: IP1 accumulation assay at point-mutated 5-HT2AR; assay type: cell-based; conditions: in the presence of 1 μM 5-HT; ± SD
T11 construct: expressed in transfected cells; host or cells: clonal cells
Procedure: as §1

F213K^4.63 5-HT2AR = biological target: T12, F213K^4.63 5-HT2AR (Homo sapiens, UniProt P28223, F213K); assay: IP1 accumulation assay at point-mutated 5-HT2AR; assay type: cell-based; conditions: in the presence of 1 μM 5-HT; ± SD
T12 construct: expressed in transfected cells; host or cells: clonal cells
Procedure: as §1

S242A^5.46 5-HT2AR = biological target: T13, S242A^5.46 5-HT2AR (Homo sapiens, UniProt P28223, S242A); assay: IP1 accumulation assay at point-mutated 5-HT2AR; assay type: cell-based; conditions: in the presence of 1 μM 5-HT; ± SD
T13 construct: expressed in transfected cells; host or cells: clonal cells
Procedure: as §1

human wild-type 5-HT2A = human wild-type 5-HT2A (Homo sapiens, UniProt P28223); assay: IP-One HTRF IP1 accumulation assay; conditions: antagonism of IP1 accumulation in the presence of 1 μM 5-HT; ± SD
D231F^5.35 5-HT2AR = D231F^5.35 5-HT2AR (Homo sapiens, UniProt P28223, D231F); assay: Exploratory saturation radioligand binding at point-mutated 5-HT2AR; conditions: membranes of transfected HEK293 cells (FIGS. 14A-14D)
W158I^4.56 H1R [11] = biological target: T7, W158I^4.56 H1R; remark: listed apart in the source

D3, sequence (P35462 whole entry): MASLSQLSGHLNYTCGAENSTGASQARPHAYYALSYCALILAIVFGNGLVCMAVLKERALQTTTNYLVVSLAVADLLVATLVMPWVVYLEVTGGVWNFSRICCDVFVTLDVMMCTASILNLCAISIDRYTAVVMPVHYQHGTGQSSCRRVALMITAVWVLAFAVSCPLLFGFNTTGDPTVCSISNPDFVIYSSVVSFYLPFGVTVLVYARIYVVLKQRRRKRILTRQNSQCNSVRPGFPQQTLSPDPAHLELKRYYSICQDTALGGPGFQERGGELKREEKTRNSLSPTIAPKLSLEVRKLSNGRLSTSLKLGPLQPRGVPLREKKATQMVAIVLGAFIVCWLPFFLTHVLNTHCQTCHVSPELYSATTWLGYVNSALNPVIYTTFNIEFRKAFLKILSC
D2L, sequence (P14416 whole entry): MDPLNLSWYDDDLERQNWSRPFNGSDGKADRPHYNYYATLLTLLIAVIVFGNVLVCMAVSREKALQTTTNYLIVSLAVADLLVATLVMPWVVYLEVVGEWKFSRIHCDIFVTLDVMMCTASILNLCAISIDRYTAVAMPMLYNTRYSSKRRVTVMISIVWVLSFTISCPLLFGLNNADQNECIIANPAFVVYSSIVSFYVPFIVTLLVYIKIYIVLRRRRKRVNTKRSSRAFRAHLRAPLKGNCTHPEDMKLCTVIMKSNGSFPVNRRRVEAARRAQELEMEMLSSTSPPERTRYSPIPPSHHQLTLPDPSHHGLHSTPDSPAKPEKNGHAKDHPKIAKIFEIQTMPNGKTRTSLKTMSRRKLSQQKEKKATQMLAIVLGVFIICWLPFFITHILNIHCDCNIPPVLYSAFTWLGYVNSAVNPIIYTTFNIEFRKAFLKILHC
5-HT7, sequence (P34969 1-445 isoform P34969-2): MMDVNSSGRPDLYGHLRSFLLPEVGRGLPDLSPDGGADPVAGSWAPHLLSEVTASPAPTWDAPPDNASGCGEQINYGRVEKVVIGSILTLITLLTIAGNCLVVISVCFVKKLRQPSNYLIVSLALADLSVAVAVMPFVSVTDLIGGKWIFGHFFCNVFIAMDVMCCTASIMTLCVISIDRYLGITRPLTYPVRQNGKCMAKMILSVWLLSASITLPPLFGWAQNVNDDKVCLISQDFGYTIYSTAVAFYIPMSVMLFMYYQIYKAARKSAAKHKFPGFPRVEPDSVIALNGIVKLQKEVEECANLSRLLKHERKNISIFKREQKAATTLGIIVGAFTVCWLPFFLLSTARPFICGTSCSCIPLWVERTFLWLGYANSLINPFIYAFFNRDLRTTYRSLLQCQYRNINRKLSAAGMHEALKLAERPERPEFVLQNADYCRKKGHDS
T1 sequence (P41595 whole entry): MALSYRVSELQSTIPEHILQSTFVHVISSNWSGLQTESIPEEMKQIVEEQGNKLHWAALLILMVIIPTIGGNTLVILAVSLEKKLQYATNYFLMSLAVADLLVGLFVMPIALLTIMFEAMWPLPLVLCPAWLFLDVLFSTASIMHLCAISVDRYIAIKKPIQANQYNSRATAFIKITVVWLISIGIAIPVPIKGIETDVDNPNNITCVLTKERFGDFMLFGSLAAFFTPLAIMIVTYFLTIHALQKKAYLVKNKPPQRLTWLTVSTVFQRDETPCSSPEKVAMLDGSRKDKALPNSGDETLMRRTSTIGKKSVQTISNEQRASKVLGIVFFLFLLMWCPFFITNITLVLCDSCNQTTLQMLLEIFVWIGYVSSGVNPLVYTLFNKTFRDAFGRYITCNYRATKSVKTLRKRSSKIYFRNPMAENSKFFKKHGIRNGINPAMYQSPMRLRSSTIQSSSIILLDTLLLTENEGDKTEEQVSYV
human wild-type 5-HT2B, sequence (P41595 whole entry): as above
T4 sequence (P28223 whole entry C322K): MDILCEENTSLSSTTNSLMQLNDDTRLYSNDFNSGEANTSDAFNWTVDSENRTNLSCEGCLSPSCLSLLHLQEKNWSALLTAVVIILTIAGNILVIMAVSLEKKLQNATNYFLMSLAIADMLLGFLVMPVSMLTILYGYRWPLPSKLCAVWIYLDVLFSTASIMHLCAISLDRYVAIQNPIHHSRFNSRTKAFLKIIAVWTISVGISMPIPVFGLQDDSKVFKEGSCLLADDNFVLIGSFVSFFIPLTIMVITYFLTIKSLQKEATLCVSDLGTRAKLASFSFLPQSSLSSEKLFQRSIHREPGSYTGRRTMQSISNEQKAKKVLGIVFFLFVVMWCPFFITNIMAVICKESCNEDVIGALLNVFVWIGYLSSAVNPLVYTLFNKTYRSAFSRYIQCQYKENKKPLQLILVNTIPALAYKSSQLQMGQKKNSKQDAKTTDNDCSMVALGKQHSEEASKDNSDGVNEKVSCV
human wild-type 5-HT2C, sequence (P28335 33-458): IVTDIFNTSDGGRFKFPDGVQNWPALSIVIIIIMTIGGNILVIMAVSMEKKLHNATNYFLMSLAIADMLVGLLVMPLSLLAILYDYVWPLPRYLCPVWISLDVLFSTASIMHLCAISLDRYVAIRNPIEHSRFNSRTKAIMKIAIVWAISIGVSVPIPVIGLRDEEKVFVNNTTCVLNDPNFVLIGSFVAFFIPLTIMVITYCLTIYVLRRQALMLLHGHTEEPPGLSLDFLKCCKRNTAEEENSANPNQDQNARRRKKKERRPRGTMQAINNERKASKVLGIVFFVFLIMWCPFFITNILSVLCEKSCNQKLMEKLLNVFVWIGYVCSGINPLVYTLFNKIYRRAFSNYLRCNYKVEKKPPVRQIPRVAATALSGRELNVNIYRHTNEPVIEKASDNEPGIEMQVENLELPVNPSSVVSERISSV
T7 sequence (P35367 whole entry W158I): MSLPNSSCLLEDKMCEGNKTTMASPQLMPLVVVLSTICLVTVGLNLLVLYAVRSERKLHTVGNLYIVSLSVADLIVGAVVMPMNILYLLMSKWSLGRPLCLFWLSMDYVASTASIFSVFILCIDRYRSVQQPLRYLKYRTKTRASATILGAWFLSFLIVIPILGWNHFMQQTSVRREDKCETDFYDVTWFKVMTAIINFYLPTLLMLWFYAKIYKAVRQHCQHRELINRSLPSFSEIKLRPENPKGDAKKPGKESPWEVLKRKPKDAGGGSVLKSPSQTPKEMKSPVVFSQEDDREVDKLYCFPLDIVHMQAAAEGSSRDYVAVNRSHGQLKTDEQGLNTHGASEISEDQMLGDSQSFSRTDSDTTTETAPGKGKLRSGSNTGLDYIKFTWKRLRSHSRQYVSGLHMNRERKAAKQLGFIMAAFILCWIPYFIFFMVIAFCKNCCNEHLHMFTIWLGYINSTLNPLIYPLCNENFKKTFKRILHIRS
human wild-type H1R, sequence (P35367 whole entry): as the sequence (P35367 whole entry W158I) above, with I158W counted along it
T6 sequence (P35367 whole entry): as the sequence (P35367 whole entry W158I) above, with I158W counted along it
T11 sequence (P28223 whole entry V235M): as the sequence (P28223 whole entry C322K) above, with V235M, K322C counted along it
D231F^5.35 5-HT2AR, sequence (P28223 whole entry D231F): as the sequence (P28223 whole entry C322K) above, with D231F, K322C counted along it
T8 sequence (P28223 whole entry): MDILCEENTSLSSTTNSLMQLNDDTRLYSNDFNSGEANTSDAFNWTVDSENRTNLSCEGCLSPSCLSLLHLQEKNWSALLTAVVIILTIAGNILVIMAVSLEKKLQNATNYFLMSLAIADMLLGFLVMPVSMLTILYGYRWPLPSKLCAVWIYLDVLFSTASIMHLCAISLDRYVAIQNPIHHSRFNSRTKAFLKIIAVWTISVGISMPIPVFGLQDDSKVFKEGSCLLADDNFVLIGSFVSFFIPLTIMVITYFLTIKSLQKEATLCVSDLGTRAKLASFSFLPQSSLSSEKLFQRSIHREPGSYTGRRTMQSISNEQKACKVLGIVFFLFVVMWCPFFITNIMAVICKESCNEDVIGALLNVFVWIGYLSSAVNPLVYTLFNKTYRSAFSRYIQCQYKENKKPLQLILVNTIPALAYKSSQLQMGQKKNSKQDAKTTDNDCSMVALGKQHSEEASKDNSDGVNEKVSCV
human wild-type 5-HT2A, sequence (P28223 whole entry): as above
T10 sequence (P28223 whole entry I210V): as the sequence (P28223 whole entry C322K) above, with I210V, K322C counted along it
T9 sequence (P28223 whole entry G238S): as the sequence (P28223 whole entry C322K) above, with G238S, K322C counted along it
T12 sequence (P28223 whole entry F213K): as the sequence (P28223 whole entry C322K) above, with F213K, K322C counted along it
T13 sequence (P28223 whole entry S242A): as the sequence (P28223 whole entry C322K) above, with S242A, K322C counted along it

CN(C)c1ccc(-c2cccc([C@H]3C[C@H](N(C)C)Cc4ccccc43)c2)cc1 [(2S,4R)-2k, Trans-4-(4′-(dimethylamino)-[1,1′-biphenyl]-3-yl)-N,N-dimethyl-1,2,3,4-tetra-hydronaph-thalen-2-amine]
Ki (5-HT2BR [1]): 47.9 nM
inverse agonist efficacy (Imax) at 5-HT2CRs (human wild-type 5-HT2C): ~75%
Ki (α1B-adrenergic receptor [2]): 646 nM
pKb at 5-HT2BRs (human wild-type 5-HT2B): 5.59±0.50
partial agonist efficacy at 5-HT2BRs, exploratory screening (human wild-type 5-HT2B; 10 μM ligand, change from basal IP1 normalized to 5-HT (FIG. 2A)): ~13 % 5-HT
agonist activity at 5-HT2BRs, full concentration-response (human wild-type 5-HT2B; FIG. 7A): did not reach statistical significance
Ki (5-HT2BR [3]): 79.4 nM
head twitch response elicited by (±)-DOI (male C57BL/6J mice [4]): significantly attenuated the head twitch response
pKi 5-HT7 (5-HT7): 6.28^(3)
pKi 5-HT1A (5-HT1A): 5.58^(3)
pKi D2L (D2L): 5.70^(3)
pKi D3 (D3): 6.92^(3)
locomotor activity, compound administered alone (male C57BL/6J mice [5]): preserving general locomotor ability
inverse agonist efficacy at C322K^6.34 5-HT2ARs (reduction of basal IP1 accumulation) (C322K^6.34 5-HT2AR): ~60%
Ki (α1A-adrenergic receptor [6]): 617 nM

CC(C)COc1ccc(CNC(=O)N(Cc2ccc(F)cc2)C2CCN(C)CC2)cc1 [PIMA, pimavanserin, reference compound]
pKi H1R (H1R; displacement of [^3H]mepyramine, mean of n independent experiments, ± SD where n ≥ 5): 5.50^(2)
locomotor activity (distance traveled) of mice given 1 mg*kg^−1 DOI (male C57BL/6J mice [7]): locomotor suppression
pKb at H1Rs (human wild-type H1R): little, if any, antagonism
Kb (human wild-type 5-HT2B): 1380 nM
Ki (5-HT2BR [3]): 437 nM
attenuation of head twitch response compared with the same dose of (2S,4R)-2k (male C57BL/6J mice [4]; 0.3 mg*kg^−1 s.c.): significantly more effective
head twitch response elicited by (±)-DOI (male C57BL/6J mice [4]): significantly attenuated the head twitch response
locomotor activity, compound administered alone (male C57BL/6J mice [5]): suppresses locomotor activity

CN(C)[C@@H]1Cc2ccccc2[C@@H](c2cccc(Br)c2)C1 (single isomer, unassigned) [(2S,4R)-2a, Trans-4-(3-bromophenyl)-N, N-dimethyl-1,2,3,4-tetrahydronaphthalen-2-amine]
Ki (α1B-adrenergic receptor [8]): 3240 nM
Ki (α1A-adrenergic receptor [9]): 10.2 nM
Ki (5-HT7; read-out: pKi 5-HT7 (converted)): 41.7 nM
Ki (5-HT1A; read-out: pKi 5-HT1A (converted)): > 10000 nM
Ki (D2L; read-out: pKi D2L (converted)): 69.2 nM
Ki (D3; read-out: pKi D3 (converted)): 120 nM
inverse agonist efficacy at C322K^6.34 5-HT2ARs (reduction of basal IP1 accumulation) (C322K^6.34 5-HT2AR; below basal): ~50%

NCCc1c[nH]cn1 [histamine]
IP1 accumulation at W158I^4.56 H1Rs in response to histamine (W158I^4.56 H1R [10]): unable to stimulate IP1 accumulation

CN(C)[C@@H]1Cc2ccccc2[C@H](c2cccc(-c3cccc(F)c3)c2)C1 (single isomer, unassigned) [(2R,4R)-3h, Cis-4-(3′-fluoro-[1,1′-biphenyl]-3-yl)-N,N-dimethyl-1,2,3,4-tetrahydronaphthalen-2-amine]
pKi H1R (H1R): 7.31 ^(2) 7.39-7.23 8.96^(3) 9.11-8.88 6.20^(2) 6.23-6.18 6.30 ± 0.10^(5) 6.42-6.14
pKi 5-HT2AR (5-HT2AR): 9.46 ± 0.34
inverse agonist efficacy (Imax) at 5-HT2CRs (human wild-type 5-HT2C): exhibits inverse agonism
pKb at H1Rs (human wild-type H1R): 5.82±0.22
Ki (α1B-adrenergic receptor [2]): 794 nM
head twitch response elicited by (±)-DOI (male C57BL/6J mice [4]): significantly attenuated the head twitch response
pKi 5-HT7 (5-HT7): 6.29^(4)
pKi 5-HT1A (5-HT1A): <5.0^(3)
pKi D2L (D2L): <5.0^(3)
pKi D3 (D3): 6.21 ^(3)
pKb G238S^5.42 5-HT2AR (G238S^5.42 5-HT2AR): 4.59 ± 0.48
pKb I210V^4.60 5-HT2AR (I210V^4.60 5-HT2AR): 7.18 ± 0.22
pKb V235M^5.39 5-HT2AR (V235M^5.39 5-HT2AR): 7.02 ± 0.26
pKb F213K^4.63 5-HT2AR (F213K^4.63 5-HT2AR): 7.04 ± 0.17
pKb S242A^5.46 5-HT2AR (S242A^5.46 5-HT2AR): 6.85 ± 0.36
pKb Wild type 5-HT2AR (human wild-type 5-HT2A): 6.97 ± 0.37
locomotor activity, compound administered alone (male C57BL/6J mice [5]): preserving general locomotor ability
inverse agonist efficacy at C322K^6.34 5-HT2ARs (reduction of basal IP1 accumulation) (C322K^6.34 5-HT2AR): ~60%
pIC50 inverse agonism at C322K^6.34 5-HT2ARs (C322K^6.34 5-HT2AR): 6.81±0.39
Ki (α1A-adrenergic receptor [6]): 741 nM

[3H]C([3H])(N1CCC(C(=O)c2ccc(F)cc2)CC1)C([3H])([3H])n1c(=O)[nH]c2ccccc2c1=O [[^3H]Ketanserin]
specific binding to D231F^5.35 5-HT2ARs (D231F^5.35 5-HT2AR): no specific binding is detected
specific binding to W158I^4.56 H1Rs (W158I^4.56 H1R [11]): cannot be detected
